The nature of the data set: logP determination by HPLC (EEC Directive 79/831 Annex V. A8). Type of data set: physicochemical. As for the experimental part: logP value is determined in accordance with EEC Directive 79/831 Annex V. A8 by HPLC (gradient method, acetonitrile/0.1% aqueous phosphoric acid)
Setting [1] is: HPLC, gradient method, acetonitrile/0.1% aqueous phosphoric acid, read-out: logP.

Where two headings read alike, the source gives them in different places.

For `CC1CCN(c2c(-c3ccc(F)cc3Cl)c(Cl)nc3c(CO)cnn23)CC1` [Example 1, 3-hydroxymethyl-5-chloro-6-(2-chloro-4-fluorophenyl)-7-(4-methylpiperidino)pyrazolo[1,5-a]pyrimidine], under setting [1], the chromatographic logP was 3.89. For `COCc1cnn2c(N3CCC(C)CC3)c(-c3ccc(F)cc3Cl)c(Cl)nc12` [Example 2, 3-methoxymethyl-5-chloro-6-(2-chloro-4-fluorophenyl)-7-(4-methylpiperidno)pyrazolo[1,5-a]pyrimidine], under setting [1], the chromatographic logP is 5.09. The same measure, in the same setting: with `CCC1COC(c2cnn3c(NC(C)C(C)(C)C)c(-c4ccc(F)cc4Cl)c(Cl)nc23)O1` (stereo not drawn) [Example 23] the figure was 5.7.

Take `CC1CCN(c2c(-c3ccc(F)cc3Cl)c(Cl)nc3c(C=O)cnn23)CC1` [Example 541, 3-formyl-5-chloro-6-(2-chloro-4-fluorophenyl)-7-(4-methylpiperidino)pyrazolo[1,5-a]pyrimidine]: the chromatographic logP (HPLC, gradient of acetonitrile/0.1% aqueous phosphoric acid, pH=2.3, read-out: log P(pH=2.3)) came to 4.53.

In the case of `CC(Nc1c(-c2ccc(F)cc2Cl)c(Cl)nc2c(C=O)cnn12)C(C)(C)C` (stereo not drawn) [Example 542, 3-formyl-5-chloro-6-(2-chloro-4-fluorophenyl)-7-(3,3-dimethylbut-2-ylamino)pyrazolo[1,5-a]pyrimidine], the chromatographic logP (HPLC (gradient method), per EEC Directive 79/831 Annex V. A8, two values, one per atropisomer, read-out: log P (atropisomers)) was 4.47. For the compound `CC1CCN(c2c(-c3ccc(F)cc3Cl)c(Cl)nc3c(C#N)cnn23)CC1` [Example 543, 3-cyano-5-chloro-6-(2-chloro-4-fluorophenyl)-7-(4-methylpiperidino)pyrazolo[1,5-a]pyrimidine], where the note is “pH=2.3, read-out: log P(pH=2.3)”, the chromatographic logP amounted to 4.88.
